Source: patent US8835510B2, “Methods and compositions for treating conditions mediated by oxidative stress or electrophilic environmental toxins” (priority 2010, dated 2014)
“And” between values parts separate entries of the source, which are not always exact repeats. Identical values can stand only once. “Also recorded” adds a separate entry of the source.

Experiments:
Male rats = assay: 2-ACP toxicity in rats (14 day i.p. dosing); format: in vivo, rat; conditions: i.p. 100, 200 or 300 mg/kg/d×14 days
Method: (§1) This study was carried out in accordance with the NIH Guide for Care and Use of Laboratory Animals and approved by the Montefiore Medical Center Animal Care and Use Committee. Adult male rats (Sprague-Dawley, Taconic Farms, Germantown, N.Y., USA) were used in this study. Rats were housed individually in polycarbonate boxes, and drinking water and Purina Rodent Laboratory Chow (Purina Mills, Inc., St. Louis, Mo., USA) were available ad libitum.
(§2) Male rats (200-250 gm) were injected (i.p.) with 2-ACP at three different daily dose-rates: 100, 200 or 300 mg/kg/d×14 days. Rats were observed 3 times per week for signs of developing toxicity; i.e., body weight loss, general appearance, water/food consumption, gait performance and home cage behavior. […] As a model of in vivo oxidative stress, rats (200-250 gm) were administered 30 μl of carbon tetrachloride (CCl4) in corn oil (ip) following six daily doses of 2-ACP (200 mg/kg/d) by gavage. […] These findings indicate that 2-ACP decreased the degree of hepatic cell death caused by CCl4.

MN9D cells [1] = assay: Cell viability (trypan blue) in acrolein-exposed MN9D cultures; conditions: for protection against acrolein-induced cell death (words): pre-incubation 60 minutes, 750 μM each (phloretin 100 μM)
Method: (§3) As a more complex biological model, a determination was made of the relative abilities of the 1,3-dicarbonyls to protect MN9D cells, a dopaminergic cell line, from acrolein- (FIG. 6) or hydrogen peroxide (H2O2)-induced cell death (FIG. 7). Briefly, two days after plating, cells were incubated with AcAc (750 μM) for one hr followed by exposure to graded concentrations of either acrolein (0.50-150 μM×24 hrs) or H2O2 (50-750 μM×24 hrs). Cell viability was determined by trypan blue (0.1%) exclusion. Living cells were counted in a hemocytometer and total cells per dish were calculated.

[2] = pKa and enolate ionization of enol compounds; format: physicochemical; conditions: for fraction in the anionic enolate state: pH 7.4 (neutral / cellular pH)
[3] = Ferrous ion chelation (method of Dairam et al.); conditions: for EC50: read-out: concentration at which 50% Fe^2+ chelation occurs
CCl4-intoxicated rats = assay: Protection from carbon tetrachloride-induced hepatotoxicity in rats; format: in vivo, rat; conditions: 2-ACP 200 mg/kg/d by gavage, six daily doses, then CCl4 30 μl ip; plasma 24 hours after
Method: as §1, §2

[4] = Free radical scavenging (DPPH absorbance method of Ak and Gulcin)
Method: The relative abilities of selected 1,3-dicarbonyl compounds to scavenge free radicals were determined using the spectrophotometric method of Ak and Gulcin (2008)^4 that measures changes in the absorbance of the 2,2-diphenyl-1-picrylhydrazyl radical.

MN9D cells [5] = assay: Cell viability (trypan blue) in H2O2-exposed MN9D cultures; conditions: for protection against H2O2-induced cell death: test compound 750 μM (phloretin 100 μM)
Method: as §3
This system represents a more complete model of oxidative stress since the hydroxyl radical formed from intracellular H2O2 during the Fenton reaction, subsequently mediates the generation of toxic aldehyde by-products such as acrolein and 4-hydroxy-2-nonenal (HNE).

[6] = Kinetic assay of acrolein-induced N-acetyl cysteine (NAC) sulfhydryl loss (DTNB method); conditions: for sulfhydryl (NAC) protection, pre-incubation: acrolein pre-incubated with test compound, NAC added one hour later; for rate of sulfhydryl loss (mean rate±SE): NAC + acrolein 150 μM + test compound 50 μM co-incubated, Krebs buffer pH 7.4, 30° C.; for ability to slow acrolein-induced NAC thiol loss: co-incubation, test compound 50 μM, pH 7.4 (FIG. 3A)
Description: As an index of cytoprotection, these studies focused on the abilities of 1,3-dicarbonyl compounds to prevent electrophile-induced loss of protein and non-protein sulfhydryl groups. This experimental focus is based on substantial evidence that soft electrophiles, like acrolein, produce toxicity by forming Michael-type adducts with soft nucleophilic thiolate (anionic sulfhydryl) groups on functionally critical proteins^9, 17, 22, 56, 57 (reviewed in^28, 58, 62, 77, 94). […] To test this hypothesis, a determination was made of the ability of AcAc and other structurally related enol analogs to prevent sulfhydryl (nucleophile) adduction by acrolein (electrophile)^56. […] Free sulfhydryl concentrations were determined over time (up to 15 mins) by the DTNB method of LoPachin et al.^52.
Therefore, as a kinetic index of competitive thiol protection by enolate sequestration, the relative in vitro abilities of 1,3-dicarbonyl compounds and phloretin to slow the rate of acrolein-induced sulfhydryl loss were measured.

[7] = system: acrolein-exposed striatal synaptosomes; assay: Protection against acrolein-induced thiol loss in striatal synaptosomes (DTNB); format: cell-based, rat; conditions: for cytoprotection / thiol protection in acrolein-exposed synaptosomes: pH 7.4, test compound 500 μM
Method: Therefore, as an investigation of possible cytoprotection, a determination was made of the relative abilities of the above 1,3-dicarbonyl structural series to prevent thiol loss in acrolein-exposed rat striatal synaptosomes (isolated CNS nerve terminals). Synaptosomes were prepared according to the methods of LoPachin et al.^52 and were exposed (Krebs buffer, pH 7.4, 30° C.×15 mins) to graded concentrations of acrolein (1-1000 μM) alone or in combination with a 1,3-dicarbonyl derivative or control compound (500 μM). […] The respective IC50s and 95% confidence intervals were calculated by the […] (Prism 3.0, GraphPad Software). The selected 1,3-dicarbonyls are carbanion nucleophiles and, therefore, the analyses also included NAC as a representative thiolate-type nucleophile. Studies were conducted to assess the in vitro toxicity of the selected enol derivatives (FIG. 4).
Studies were carried out using isolated brain nerve terminals (striatal synaptosomes) exposed to acrolein as a model of electrophile-induced toxicity, as illustrated in FIG. 5A-5B. Acrolein is a soft electrophile that inhibits protein function by forming adducts with soft nucleophilic cysteine residues and thereby causes synaptosomal toxicity.

[8] = system: acrolein-exposed striatal synaptosomes; assay: Protection against acrolein-induced inhibition of 3H-dopamine transport in striatal synaptosomes; format: cell-based, rat; conditions: for change in acrolein IC50 for inhibition of DA transport: test compound 500 μM, Krebs buffer pH 7.4, 30° C., 15 mins (FIG. 5A)
Aqueous solubility = format: physicochemical
[9] = co-incubation with test compound 500 μM

| Compound | protection against acrolein-induced cell death (words) (MN9D cells [1]) | pKa [2] | fraction in the anionic enolate state [2] | protection against H2O2-induced cell death (MN9D cells [5]) | sulfhydryl (NAC) protection, pre-incubation [6] | change in acrolein IC50 for inhibition of DA transport [8] | also measured |
| --- | --- | --- | --- | --- | --- | --- | --- |
| CC(=O)C1CCCC1=O (centres unmarked) [2-ACP, 2-acetylcyclopentanone] | completely prevented cell death | 7.8 | ~50% | nearly complete protection | completely preserved | – | overt signs of toxicity (body weight loss, appearance, water/food consumption, gait, home cage behavior) (Male rats): did not cause overt signs of toxicity; concentration dependence of protection against acrolein (MN9D cells [1]; graded concentrations: 2-ACP 100-750 μM, AcAc 250-1000 μM (range-finding 50-1000 μM)): significant increases in the LC50; EC50 [3]: 211 µM; reduction of plasma alanine transferase (ALT) relative to toxicant only (CCl4-intoxicated rats): 40%; reduction of plasma aspartate transferase (AST) relative to toxicant only (CCl4-intoxicated rats): 52%; DPPH scavenging rate, fold slower than curcumin ([4]; relative to curcumin): 30-40 fold; concentration dependence of protection against H2O2 (MN9D cells [5]; graded concentrations: 2-ACP 250-750 μM, AcAc 500-1500 μM (range-finding 50-1000 μM)): significant increases in the LC50 of H2O2; sulfhydryl (NAC) protection, co-incubation ([6]; all chemicals added simultaneously): complete sulfhydryl protection; increase in acrolein IC50 for synaptosomal thiol loss [7, 9]: 15 fold; increase in acrolein IC50 for 3H-DA transport inhibition [8, 9]: 15 fold; water solubility (Aqueous solubility): water soluble |
| O=C1CCC(=O)C1 [CPD, 1,3-cyclopentanedione] | completely prevented cell death | – | – | ineffective | modestly effective | – | – |
| CCOC(=O)CC(=O)OCC [DEM, diethyl malonate] | neither DEM nor HD were effective | 12.9 | < 0.1% | ineffective | – | Neither DEM nor HD significantly affected | increase in enolate concentration ([2]; pH 9.0 relative to pH 7.4): ~100 fold; cytoprotection / thiol protection in acrolein-exposed synaptosomes [7]: not cytoprotective |
| CC1(C)CC(=O)CC(=O)C1 [DMD, 5,5-Dimethyl-1,3-cyclohexanedione] | did not provide protection | 5.3 | 99% | – | significant thiol protection | largest increases in the acrolein IC50 | protection against acrolein-induced cell death in serum-free medium (MN9D cells [1]): substantial increases in the acrolein LC50; rate of sulfhydryl loss (mean rate±SE) [6]: −2.4±0.3 nmol SH sec^−1; cytoprotection / thiol protection in acrolein-exposed synaptosomes [7]: powerful cytoprotectant |
| O=C(O)CN(CCN(CC(=O)O)CC(=O)O)CC(=O)O [EDTA] | – | – | – | – | – | – | EC50 [3]: 31 µM |
| CC(=O)CCC(C)=O [HD, 2,5-hexanedione, reference compound] | neither DEM nor HD were effective; also recorded: slight increase in LC50 | – | – | ineffective | did not affect the rate of acrolein-induced thiol loss | Neither DEM nor HD significantly affected | ability to slow acrolein-induced NAC thiol loss [6]: not effective |
| CC(=O)C(C)C(C)=O [MPD, 3-methyl-2,4-pentanedione] | – | 10.8 | – | – | – | – | ability to slow acrolein-induced NAC thiol loss [6]: minimally protective |
| CC1(C)OC(=O)CC(=O)O1 [Meld. Acid, 2,2-dimethyl-1,3-dioxane-4,6-dione] | did not provide protection | 4.8 | – | – | significant thiol protection | largest increases in the acrolein IC50 | protection against acrolein-induced cell death in serum-free medium (MN9D cells [1]): substantial increases in the acrolein LC50 |
| CC(=O)N[C@@H](CS)C(=O)O [NAC, N-acetyl cysteine, reference compound] | nearly complete protection; also recorded: completely prevented cell death | – | – | significantly less efficacious; also recorded: less protective | – | largest increases in the acrolein IC50 | Fe^2+ chelating activity [3]: little, if any, Fe^2+ chelating activity; DPPH radical scavenging [4]: modest free radical scavenging |
| CC(=O)CC(=O)C(F)(F)F [TFPD, 1,1,1,-trifluoro-2,4-pentanedione] | significantly increased the acrolein LC50 | – | > 99% and 99% | modestly effective | modestly effective | more modest | increase in acrolein LC50 (MN9D cells [1]; test compound 750 μM pre-incubation): ~7 fold; protection against H2O2-induced cytotoxicity (MN9D cells [5]; FIG. 7): 3 fold; rate of sulfhydryl loss (mean rate±SE) [6]: −52.1±5 nmol SH sec^−1; thiol protection against acrolein at elevated pH ([6]; pH 9.0): none was observed; also recorded: did not increase; cytoprotection / thiol protection in acrolein-exposed synaptosomes [7]: some thiol protection |
| C=CC=O [acrolein] | – | – | – | – | – | – | rate of sulfhydryl loss (mean rate±SE) [6]: −78.4±7 nmol SH sec^−1; rate of acrolein-induced sulfhydryl (NAC) loss (mean rate±95% confidence interval) ([6]; pH 7.4): -78.4 ± 6.2 nmol/s; IC50 ([7]; Rattus norvegicus, acrolein alone, 0.001-1 mM, read-out: IC50 of acrolein for loss of synaptosomal sulfhydryl groups): 74 µM; IC50 ([8]; Rattus norvegicus, acrolein alone, 0.001-1 mM, read-out: IC50 of acrolein for decrease in membrane 3H-DA transport): 66 µM |
| COc1cc(/C=C/C(=O)CC(=O)/C=C/c2ccc(O)c(OC)c2)ccc1O [curcumin, reference compound] | – | 8 | – | – | – | – | water solubility (Aqueous solubility): insolubility in aqueous solutions |
